Reference: paper PMC10307035, “Antiviral activity of singlet oxygen-photogenerating perylene compounds against SARS-CoV-2: Interaction with the viral envelope and photodynamic virion inactivation” (Virus Research, 2023)
pEC50: −log10 of the molar value. Read-outs that look alike come from different tables or passages of the source.

Tests used:
Type in all cases: cell-based
[1] = test system: SARS-CoV-2 (Wuhan variant); assay: microbe, parasite or virus in culture; conditions: for inhibition of SARS-CoV-2 replication in virus-infected cells: 2 and 10 µM, Vero cells
[2] = test system: SARS-CoV-2 variants Alpha (B.1.1.7), Beta (B.1.351), Gamma (p.1), Delta (B.1.617.2), and Omicron (B.1.1.529); conditions: 1 and 10 µM, 48 h, Vero cells
[3] = test system: SARS-CoV-2 (Wuhan variant); assay: Virucidal activity against SARS-CoV-2 (plaque assay); conditions: 10 µM, 120 min at 37 °C in the dark
[4] = Severe acute respiratory syndrome coronavirus 2, Vero, 48 h, read-out: App. EC50
[5] = Severe acute respiratory syndrome coronavirus 2, Vero, read-out: EC50

SMILES	pEC50 [1, 4]	pEC50 [1, 5]	pEC50 ([1]; read-out: EC50)	inhibition of SARS-CoV-2 replication in virus-infected cells [1]	replication of all tested SARS-CoV-2 variants [2]	virucidal effect against SARS-CoV-2 (ranking) [3]
CC(C)(C)C(=O)OCn1c(=O)c(C#Cc2ccc3c4cccc5cccc(c6cccc2c63)c54)cn(CC(=O)NCCCCCO)c1=O [Compound 11]	5.97	6.36				
CC(C)(C)C(=O)OCn1c(=O)c(C#Cc2ccc3c4cccc5cccc(c6cccc2c63)c54)cn(CC(=O)NCCO)c1=O [Compound 9]	6.11	6.86				
Cn1cc(C#Cc2ccc3c4cccc5cccc(c6cccc2c63)c54)c(=O)n(C)c1=O [Compound 4]	5.69	6.39	6.39			
CC(=O)Nc1ccc(C#Cc2ccc3c4cccc5cccc(c6cccc2c63)c54)cc1 [Compound 15]	6.49	7.20	7.20			
CC(C)(C)C(=O)OCn1c(=O)c(C#Cc2ccc3c4cccc5cccc(c6cccc2c63)c54)cn(CC(=O)NCCCCCCO)c1=O [Compound 12]	< 5.30	6.09	6.09			
CN(C)c1ccc(C#Cc2ccc3c4cccc5cccc(c6cccc2c63)c54)cc1 [Compound 14]	< 5.30	< 5.60				
CC(C)(C)C(=O)OCn1c(=O)c(C#Cc2ccc3c4cccc5cccc(c6cccc2c63)c54)cn(CC(=O)NCCCCO)c1=O [Compound 6]	6.11	7.04				
CCCCNC(=O)c1ccc(-c2ccc3c4cccc5cccc(c6cccc2c63)c54)s1 [Compound 19]	6.33	7.01	7.01			
CCCCNC(=O)Cn1cc(C#Cc2ccc3c4cccc5cccc(c6cccc2c63)c54)c(=O)n(COC(=O)C(C)(C)C)c1=O [Compound 8]	< 5.30	~5.70				
O=C(O)c1ccc2c3cccc4cccc(c5cccc1c52)c43 [Compound 20]	< 5.30	< 5.60				
CC(C)(C)C(=O)OCn1c(=O)c(C#Cc2ccc3c4cccc5cccc(c6cccc2c63)c54)cn(CC(=O)NC[C@@H](O)C(C)(C)CO)c1=O [Compound 7]	5.93	6.38		complete inhibition		
O=C(NCCCCO)c1ccc(-c2ccc3c4cccc5cccc(c6cccc2c63)c54)s1 [Compound 17]	> 8.40	> 8.40			efficiently inhibited	strongest virucidal effect
CC(C)(C)C(=O)OCn1c(=O)c(C#Cc2ccc3c4cccc5cccc(c6cccc2c63)c54)cn(CC(=O)N(CCO)CCO)c1=O [Compound 13]	6.21	6.56		complete inhibition	efficiently inhibited	
CC(C)(C)C(=O)OCn1c(=O)c(C#Cc2ccc3c4cccc5cccc(c6cccc2c63)c54)cn(CC(=O)NCCCO)c1=O [Compound 10]	5.71	6.42				
CC(C)(C)C(=O)OCn1c(=O)c(C#Cc2ccc3c4cccc5cccc(c6cccc2c63)c54)cn(CC(=O)O)c1=O [Compound 5]	< 5.30	~5.70	5.69			
O=C(O)c1ccc(-c2ccc3c4cccc5cccc(c6cccc2c63)c54)s1 [Compound 16]	5.59	6.27	6.27			
O=c1[nH]c(=O)n([C@H]2C[C@H](O)[C@@H](CO)O2)cc1C#Cc1ccc2c3cccc4cccc(c5cccc1c52)c43 [Compound 2, 5-(perylen-3-yl)ethynyl-2′-deoxy-uridine]	6.07	6.59	6.59		efficiently inhibited	
O=C(c1ccc(-c2ccc3c4cccc5cccc(c6cccc2c63)c54)s1)N(CCO)CCO [Compound 18]	6.88	7.72	7.72			
O=c1[nH]c(=O)n([C@@H]2O[C@H](CO)[C@@H](O)[C@@H]2O)cc1C#Cc1ccc2c3cccc4cccc(c5cccc1c52)c43 [Compound 1, 5-(perylen-3-yl)ethynyl-arabino-uridine]	5.95	6.39	6.39			
O=c1[nH]cc(C#Cc2ccc3c4cccc5cccc(c6cccc2c63)c54)c(=O)[nH]1 [Compound 3]	< 5.30	< 5.60				
